How the values were obtained:
[1] = molecular target: T1, AAK1 (full length human) with AP2M1 in HEK293F cells (Homo sapiens, UniProt Q2M2I8); assay: HEK281 cell-based assay (phospho-mu2 Western blot in transfected HEK293F cells); conditions: 3 hours, inhibition of mu2 phosphorylation
T1 construct: expressed in transfected cells; host or cells: HEK293F
Protocol: HEK293F cells were cultured in media containing DMEM (Gibco, cat. #11965), 10% FBS (SAFC Biosciences, cat. #12103C), 1×GPS (glutamine, penicillin and streptomycin). On day one, cells were plated on a 10 cm dish so that they are ˜80% confluent at time of transfection. Roughly 12 million cells were in a 10 cm dish at time of transfection. On day two, each dish was transfected with 48 ug DNA and 144 ul Lipofectamine 2000 (Invitrogen, cat. #11668-019). The DNA was comprised of a mixture (per 10 cm dish) containing 3 ug AAK1/HA/pIRES (full length human, NCBI accession no. NP_055726.2), 45 μg Flag/AP2MI/pcDNA (full length human), and 1.5 ml OPTI-MEM. The Lipofectamine 2000 is made up of a mixture (per 10 cm dish) containing 144 μl Lipofectamine 2000 and 1.5 ml OPTI-MEM. Each mixture was transferred to individual 15 ml tubes and incubated at RT for 5 minutes, and then the two mixes were combined and incubated at RT for 20 minutes. Growth media was then aspirated from each 10 cm plate and replaced with 10 ml of DMEM+10% FBS (no GPS). Finally, 3 ml DNA/Lipofectamine mix was added to each 10 cm dish and mix gently followed by incubate of plate overnight at 37° C. and 5% CO2.
On day three, compounds were diluted in 100% DMSO at 1000× final concentration, followed by 3-fold serial dilutions for a total of 5 concentrations tested. Four compounds were tested per 10 cm dish. One ul of each compound dilution was then pipetted into a deep-well, 96-well plate, followed by addition of 500 μl DMEM+0.5% FBS into each well for a 2× final concentration of each compound. Cells were resuspended in a 10 cm dish by simple pipetting (HEK293 cells come off the plate that easy at this point) and then transferred to a 50 ml conical tube and pelleted by centrifugation at 1000 rpm for 5 min. Cell pellets were then resuspended in 2.75 ml DMEM+0.5% FBS per 10 cm dish and 100 μl of cell suspension transferred into each well of 96-well TC plate. Finally, 100 μl of 2× compound diluted in DMEM+0.5% FBS was then added into wells containing cell suspension for a 1× final concentration. Plates were then incubated at 37° C. and 5% CO2 for 3 hours followed by transferring of cell suspensions from each well into 12-tube PCR strips. The PCR strips were spun in a tip rack at 1000 rpm for 5 minutes to pellet cells and media was then removed by pipetting without disturbing the cell pellet.
To prepare for Western Blot analysis, cell pellets were resuspend in 40 ul 1×LDS-PAGE sample buffer (Invitrogen, cat. # NP0008)+2× Halt phosphatase and protease inhibitor cocktail (Thermo Scientific, cat. #1861284), followed by sonicating each with microtip sonicator set at 5 for 8-10 seconds. Five ul of 10× NuPage Sample Reducing Agent (with […]) was to each sample followed by heat denaturing at 70 C for 10 min on PCR machine. A total of 10 μl per sample was loaded into each lane of a 4-20% Tris-Glycine Criterion 26-well gel (Biorad, cat. #345-0034) for the phospho-mu2 blot and 10 μl per lane in a 4-12% Bis-Tris (+MES buffer) NuPAGE 26-well gel (Invitrogen, cat. # WG1403BX10) for the mu2 blot. For controls, 2 ng of phospho-mu2 or 20 ng mu2/Flag proteins were loaded in the last well of each gel. After SDS-PAGE, samples on each gel were transferred to PVDF membrane using an iBlot and membranes were blocked for one hour in TBST+5% milk, followed by wash 3× for 5-10 min with TBST. Criterion gels were probed with rabbit anti-phospho-mu2 (1:5000; a rabbit polyclonal antibody produced by New England Peptide and affinity purified at Lexicon) in TBST+5% BSA, whereas, NuPAGE gels were probed with mouse anti-Flag (1:500; Sigma, cat. # F1804) in TBST+5% milk, and these primary antibodies were incubated overnight at 4° C. on a rocker. […]

GST-Xa-hAAK1 = molecular target: T2, GST-Xa-hAAK1 (Homo sapiens, UniProt Q2M2I8); assay: AAK1 kinase assay; format: biochemical; conditions: ATP 22 μM, 3 hours at room temperature
T2 construct: made in house
Protocol: The assays were performed in U-bottom 384-well plates. […] The reactions were initiated by the combination of bacterially expressed, GST-Xa-hAAK1 with substrates and test compounds. The reactions were incubated at room temperature for 3 hours and terminated by adding 60 μl of 35 mM EDTA buffer to each sample. The reactions were analyzed on the Caliper LabChip 3000 (Caliper, Hopkinton, Mass.) by electrophoretic separation of the fluorescent substrate and phosphorylated product. […] Compounds were dissolved at 10 mM in dimethylsulfoxide (DMSO) and evaluated at eleven concentrations. IC50 values were derived by non-linear regression analysis.

T1 sequence (Q2M2I8 whole entry): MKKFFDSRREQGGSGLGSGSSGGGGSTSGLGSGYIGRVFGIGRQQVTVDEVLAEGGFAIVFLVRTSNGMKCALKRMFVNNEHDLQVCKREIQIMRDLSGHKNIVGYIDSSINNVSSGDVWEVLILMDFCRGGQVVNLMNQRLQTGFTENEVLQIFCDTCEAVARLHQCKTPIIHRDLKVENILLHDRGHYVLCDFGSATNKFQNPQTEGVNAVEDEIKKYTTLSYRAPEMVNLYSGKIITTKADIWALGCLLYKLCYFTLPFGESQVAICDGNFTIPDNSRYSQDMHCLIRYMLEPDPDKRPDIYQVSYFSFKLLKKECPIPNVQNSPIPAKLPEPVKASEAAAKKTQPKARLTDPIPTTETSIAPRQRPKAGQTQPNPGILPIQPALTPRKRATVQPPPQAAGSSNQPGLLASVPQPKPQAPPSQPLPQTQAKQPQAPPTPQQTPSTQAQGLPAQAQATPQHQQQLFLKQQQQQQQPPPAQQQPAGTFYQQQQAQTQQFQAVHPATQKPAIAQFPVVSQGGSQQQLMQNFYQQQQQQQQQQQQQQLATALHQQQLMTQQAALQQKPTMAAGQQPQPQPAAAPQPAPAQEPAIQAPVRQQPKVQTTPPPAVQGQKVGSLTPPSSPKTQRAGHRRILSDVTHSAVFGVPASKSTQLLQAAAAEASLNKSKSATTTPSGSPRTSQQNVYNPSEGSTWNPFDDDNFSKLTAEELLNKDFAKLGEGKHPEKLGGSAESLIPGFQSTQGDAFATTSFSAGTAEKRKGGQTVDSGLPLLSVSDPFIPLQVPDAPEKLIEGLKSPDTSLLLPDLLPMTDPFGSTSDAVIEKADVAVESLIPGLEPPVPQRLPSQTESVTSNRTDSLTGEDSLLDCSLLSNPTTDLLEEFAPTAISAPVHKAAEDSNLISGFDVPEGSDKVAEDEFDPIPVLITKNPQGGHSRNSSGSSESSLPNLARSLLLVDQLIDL
T2 sequence (Q2M2I8 whole entry): as above

Row | IC50 ([1]; given as IC50 range) [nM] | IC50 (GST-Xa-hAAK1; given as IC50 range) [nM] | IC50 (GST-Xa-hAAK1) [nM] | IC50 [1] [nM] | SMILES
1 | 10 to 100 | 10 to 100 | – | – | Cc1nccc2c1c(=O)n(C)c1cc(OC[C@H](N)CC(C)C)ccc21 [Example 19, (R)-8-((2-amino-4-methylpentyl)oxy)-4,6-dimethylbenzo[c][2,7]naphthyridin-5(6H)-one]
2 | 1 to 10 | 1 to 10 | – | – | Cc1nccc2c1c(=O)n(C)c1cc(OC[C@H](N)CC(C)C)c(Cl)cc21 [Example 20, (R)-8-((2-amino-4-methylpentyl)oxy)-9-chloro-4,6-dimethylbenzo[c][2,7]naphthyridin-5(6H)-one]
3 | 1 to 10 | – | 0.12 | – | Cc1nccc2c1c(=O)n(C)c1cc(OC[C@@H](N)CC3CC3)c(Cl)cc21 [Example 23, (S)-8-(2-amino-3-cyclopropylpropoxy)-9-chloro-4,6-dimethylbenzo[c][2,7]naphthyridin-5(6H)-one]
4 | 1 to 10 | 1 to 10 | – | – | Cc1nccc2c1c(=O)n(C)c1cc(OC[C@@H](N)CC3CCC3)c(Cl)cc21 [Example 24, (S)-8-(2-amino-3-cyclobutylpropoxy)-9-chloro-4,6-dimethylbenzo[c][2,7]naphthyridin-5(6H)-one]
5 | 1 to 10 | – | 0.55 | – | Cc1cc2c3ccnc(C)c3c(=O)n(C)c2cc1OC[C@@H](N)CC1CC1 [Example 25, (S)-8-(2-amino-3-cyclopropylpropoxy)-4,6,9-trimethylbenzo[c][2,7]naphthyridin-5(6H)-one]
6 | 1 to 10 | – | 2.9 | – | Cc1cc2c3ccnc(C)c3c(=O)n(C)c2cc1OC[C@@H](N)CC1CCC1 [Example 26, (S)-8-(2-amino-3-cyclobutylpropoxy)-4,6,9-trimethylbenzo[c][2,7]naphthyridin-5(6H)-one]
7 | 10 to 100 | – | 3.9 | – | Cc1nccc2c1c(=O)n(C)c1cc(OCC(C)(N)CC(C)C)ccc21 (stereo not shown) [Example 32, 8-((2-amino-2,4-dimethylpentyl)oxy)-4,6-dimethylbenzo[c][2,7]naphthyridin-5(6H)-one]
8 | – | – | 0.64 | 3.3 | Cc1nccc2c1c(=O)n(C)c1cc(OCC(C)(N)CC(C)C)c(Cl)cc21 (stereo not shown) [Example 41, 8-((2-amino-2,4-dimethylpentyl)oxy)-9-chloro-4,6-dimethylbenzo[c][2,7]naphthyridin-5(6H)-one]
9 | – | 1 to 10 | – | 3.1 | CCc1cc2c3ccncc3c(=O)n(C)c2cc1OC[C@@H](N)CC(C)C [Example 46, (S)-8-(2-amino-4-methylpentyloxy)-9-ethyl-6-methylbenzo[c][2,7]naphthyridin-5(6H)-one]
10 | 10 to 100 | – | 4.5 | – | CC(C)C[C@H](N)COc1cc2c(cc1C(C)C)c1ccncc1c(=O)n2C [Example 47, (S)-8-(2-amino-4-methylpentyloxy)-9-isopropyl-6-methylbenzo[c][2,7]naphthyridin-5(6H)-one]
11 | – | 1 to 10 | – | 1.8 | CC(C)C[C@H](N)COc1cc2c(cc1-c1cnco1)c1ccncc1c(=O)n2C [Example 48, (S)-8-(2-amino-4-methylpentyloxy)-6-methyl-9-(oxazol-5-yl)benzo[c][2,7]naphthyridin-5(6H)-one]
12 | – | 1 to 10 | – | 2.4 | CC(C)C[C@H](N)COc1cc2c(cc1F)c1ccnc(N)c1c(=O)n2C [Example 52, (S)-4-amino-8-(2-amino-4-methylpentyloxy)-9-fluoro-6-methylbenzo[c][2,7]naphthyridin-5(6H)-one]
13 | 1 to 10 | 1 to 10 | – | – | Cn1c(=O)c2cnccc2c2cc(C#N)c(OCC(N)CCC(F)(F)F)cc21 (stereo not shown) [Example 56, 8-((2-amino-5,5,5-trifluoropentyl)oxy)-6-methyl-5-oxo-5,6 dihydrobenzo[c][2,7]naphthyridine-9-carbonitrile]
14 | 1 to 10 | 1 to 10 | – | – | Cc1nccc2c1c(=O)n(C)c1cc(OC[C@@H](N)CC(C)C)c(Cl)cc21 [Example 62, (S)-8-((2-amino-4-methylpentyl)oxy)-9-chloro-4,6-dimethylbenzo[c][2,7]naphthyridin-5(6H)-one]
15 | 1 to 10 | 1 to 10 | – | – | Cc1cc2c3ccnc(C)c3c(=O)n(C)c2cc1OC[C@@H](N)CC(C)C [Example 63, (S)-8-(2-amino-4-methylpentyloxy)-4,6,9-trimethylbenzo[c][2,7]naphthyridin-5(6H)-one]
16 | 1 to 10 | 1 to 10 | – | – | Cc1nccc2c1c(=O)n(C)c1cc(OC[C@@H](N)CC(C)C)c(F)cc21 [Example 70, (S)-8-(2-amino-4-methylpentyloxy)-9-fluoro-4,6-dimethylbenzo[c][2,7]naphthyridin-5(6H)-one]
17 | < 1 | < 1 | – | – | Cc1nccc2c1c(=O)n(C)c1cc(OC[C@@H](N)CC(C)C)c(-c3cnco3)cc21 [Example 72, (S)-8-(2-amino-4-methylpentyloxy)-4,6-dimethyl-9-(oxazol-5-yl)benzo[c][2,7]naphthyridin-5(6H)-one]
18 | 1 to 10 | 1 to 10 | – | – | Cc1nccc2c1c(=O)n(C)c1cc(OCC(N)CCC(F)(F)F)c(C#N)cc21 (stereo not shown) [Example 73, 8-(2-amino-5,5,5-trifluoropentyloxy)-4,6-dimethyl-5-oxo-5,6-dihydrobenzo[c][2,7]naphthyridine-9-carbonitrile]
19 | 1 to 10 | 1 to 10 | – | – | Cc1nccc2c1c(=O)n(C)c1cc(OC[C@@H](N)CC(C)C)c(C(F)(F)F)cc21 [Example 75, (S)-8-(2-amino-4-methylpentyloxy)-4,6-dimethyl-9-(trifluoromethyl)benzo[c][2,7]naphthyridin-5(6H)-one]
20 | 1 to 10 | – | 0.8 | – | Cc1nccc2c1c(=O)n(C)c1cc(OC[C@H](N)CC(C)C)c(C#N)cc21 [Example 78, (R)-8-(2-amino-4-methylpentyloxy)-4,6-dimethyl-5-oxo-5,6-dihydrobenzo[c][2,7]naphthyridine-9-carbonitrile]
21 | 1 to 10 | 1 to 10 | – | – | Cc1nccc2c1c(=O)n(C)c1cc(OC[C@@H](N)CC(C)C)c(-c3cncs3)cc21 [Example 83, (S)-8-(2-amino-4-methylpentyloxy)-4,6-dimethyl-9-(thiazol-5-yl)benzo[c][2,7]naphthyridin-5(6H)-one]
22 | 10 to 100 | 1 to 10 | – | – | CC(C)CC(C)(N)COc1ccc2c3c(F)cncc3c(=O)n(C)c2c1 (stereo not shown) [Example 97, 8-(2-amino-2,4-dimethylpentyloxy)-1-fluoro-6-methylbenzo[c][2,7]naphthyridin-5(6H)-one]

Row | SMILES | IC50 ([1]; given as IC50 range) [nM] | IC50 (GST-Xa-hAAK1; given as IC50 range) [nM] | IC50 (GST-Xa-hAAK1) [nM] | IC50 [1] [nM]
23 | Cc1nccc2c1c(=O)n(C)c1cc(OC[C@@H](N)CC(C)C)c(C#N)cc21 [Example 64, (S)-8-(2-amino-4-methylpentyloxy)-4,6-dimethyl-5-oxo-5,6-dihydrobenzo[c][2,7]naphthyridine-9-carbonitrile] | – | < 1 | – | 0.6

From US8901305B2, “Aryl lactam kinase inhibitors” (Bristol-Myers Squibb Company, priority 2012, dated 2014)
